The values that follow come from patent publication US12091405B2, “Substituted pyrazole compounds as indoleamine 2,3-dioxygenase inhibitors” (Merck Sharp & Dohme LLC, priority 2018, dated 2024).

Test [1] has as its target T1, IDO1 (Homo sapiens, UniProt P14902). Description: IDO1 Cellular Assay in HeLa Cells Stimulated with IFNγ. Type of test: cell-based. To be noted: IFNγ 100 ng/mL, 300 uM L-tryptophan, about 48 hours, fluorescence readout, read-out: IDO1 HELA Cell Assay, IC50.
In test [2] the target is T1, IDO1. In words: IDO1 Human Whole Blood Assay. Type of test: cell-based. The arrangement: Human whole blood was drawn in sodium heparin coated tubes from healthy internal donors; from tissue; host or cells: human whole blood from healthy donors, stimulated with LPS and IFNγ. As to conditions: LPS and IFNγ 100 ng/mL, overnight (18 h), kynurenine by LC/MS/MS. The protocol:
IDO1 Human Whole Blood Assay
Compounds to be tested were serially diluted in ten 3-fold steps in DMSO starting from 10 mM. 3 μL of compound dilutions or DMSO alone were then dispensed from the dilution plate into a polypropylene 96-well assay plate containing 97 μL of RPMI medium using an Echo 555 acoustic liquid handler (Labcyte). LPS and IFNγ was prepared in RPMI medium to a 10× of final conc. (1000 ng/mL), final concentration is 100 ng/mL.
Human whole blood was drawn in sodium heparin coated tubes from healthy internal donors. 240 μL of blood was transferred to each of the wells of a v-bottom 96 well plate. 30 μL of compound was transferred from intermediate dilution plate, and incubated for 15 min. 30 μL from stimulants was then transferred to blood and mixed thoroughly. Plate was covered with breathable membrane and incubated at 37° C. for overnight (18 h).
On day 2, isotope labeled standard solutions of kynurenine and tryptophan was made in water at 10× concentration and 30 μL was added to the blood at 3 μM final concentration. The assay plates were centrifuged at 300×G for 10 min with no brake to separate plasma from red blood cells. 60 μL of plasma samples was removed without disturbing red blood cells. Plasma was diluted with RPMI in 1:1 ratio and proteins were precipitated out with two volumes of Acetonitrile. The plates were centrifuged at 4000×G for 60 min. 20 μL of supernatant was carefully transferred to a 384 well plate containing 40 μL of 0.1% formic acid in water and analyzed by LC/MS/MS.
LC/MS/MS analyses were performed using Thermo Fisher's LX4-TSQ Quantum Ultra system. This system consists of four Agilent binary high-performance liquid chromatography (HPLC) pumps and a TSQ Quantum Ultra triple quadrupole MS/MS instrument. For each sample, 5 μL were injected onto an Atlantis T3 column (2.1 mm×150 mm, 3 μm particle size) from Waters. The mobile phase gradient pumped at 0.8 mL/min was used to elute the analytes from the column at 25 EC. The elution started at 0% B increasing linearly to 25% B at 6.5 min, holding at 25% for 1 min, re-equilibrating to 10 min. Mobile phase A consisted of 0.1% formic acid in water. Mobile phase B consisted of 0.1% of formic acid in acetonitrile. Data were acquired in positive mode using a HESI interface. The operational parameters for the TSQ Quantum Ultra instrument were a spray voltage of 4000 V, capillary temperature of 380° C., vaporizer temperature 400° C., shealth gas 60 arbitrary units, Aux gas 20 arbitrary units, tube lens 85 and collision gas 1.2 mTorr. SRM chromatograms of kynurenine (Qi: 209.2>Q3:94.0) and internal standard (Qi: 215.3>Q3:98.2) were collected for 90 sec. The peak area was integrated by Xcalibur Quan software. The ratios between the kynurenine generated in the reaction and 2D6-Kynurenine spiked-in internal standard were used to generate percentage inhibition and IC50 values. Compounds were titrated and IC50's were calculated by 4 parameter sigmoidal curve fitting formula.
The biological activity data of selective compounds using the IDO1 human whole blood assay described above are summarized in the table below.

Structures are written as SMILES. pIC50: −log10 of the molar value.

A word on the pIC50: it is the negative decadic logarithm of the IC50, by convention in mol/L.

T1 sequence (P14902 whole entry): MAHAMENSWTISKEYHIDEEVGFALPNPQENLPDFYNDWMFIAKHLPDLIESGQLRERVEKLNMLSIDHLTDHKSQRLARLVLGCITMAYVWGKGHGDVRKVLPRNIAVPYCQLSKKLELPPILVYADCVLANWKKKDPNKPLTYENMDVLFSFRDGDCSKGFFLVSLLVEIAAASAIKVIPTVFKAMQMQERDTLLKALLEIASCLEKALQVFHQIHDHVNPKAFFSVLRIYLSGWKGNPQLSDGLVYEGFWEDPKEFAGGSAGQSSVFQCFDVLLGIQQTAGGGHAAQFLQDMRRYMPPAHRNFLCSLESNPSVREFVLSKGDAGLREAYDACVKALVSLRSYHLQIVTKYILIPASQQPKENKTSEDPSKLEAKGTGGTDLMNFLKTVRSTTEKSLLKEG

Turning to `Cc1cccc(C2CCN(C(=O)Cn3nc(C(=O)N4CC[C@H](O)[C@@H](F)C4)c4c3CCC4)CC2)c1C` [Example 37, 1-(4-(2,3-dimethylphenyl)piperidin-1-yl)-2-(3-((3S,4S)-3-fluoro-4-hydroxypiperidine-1-carbonyl)-5,6-dihydrocyclopenta[c]pyrazol-1(4H)-yl)ethanone], the negative-log IC50 (pIC50) on IDO1 [1] is 8.74; on IDO1 [2] it was 7.07.
For `Cc1cccc(C2CCN(C(=O)Cn3nc(C(=O)N4CCN(C(=O)CO)CC4)c4c3C[C@H]3C[C@@H]43)CC2)c1C` [Example 18, 1-[4-(2,3-dimethylphenyl)piperidin-1-yl]-2-{(3bR,4aR)-3-[4-(hydroxyacetyl)piperazine-1-carbonyl]-3b,4,4a,5-tetrahydro-1H-cyclopropa[3,4]cyclopenta[1,2-c]pyrazol-1-yl}ethan-1-one], in that order: 8.64 and 7.23.
As for `Cc1cccc(C2CCN(C(=O)Cn3nc(C(=O)N4CC[C@H](O)[C@H](F)C4)c4c3CCC4)CC2)c1C` [Example 44, 1-(4-(2,3-dimethylphenyl)piperidin-1-yl)-2-(3-((3R,4S)-3-fluoro-4-hydroxypiperidine-1-carbonyl)-5,6-dihydrocyclopenta[c]pyrazol-1(4H)-yl)ethanone], the negative logarithm of the IC50 (pIC50) at IDO1 [1] was 8.14; against IDO1 [2], 6.14.
For `Cc1cccc(C2CCN(C(=O)Cn3nc(C(=O)N4CC[C@@H](O)[C@@H](C)C4)c4c3C[C@H]3C[C@@H]43)CC2)c1C` [Example 22, 1-[4-(2,3-dimethylphenyl)piperidin-1-yl]-2-{(3bR,4aR)-3-[(3S,4R)-4-hydroxy-3-methylpiperidine-1-carbonyl]-3b,4,4a,5-tetrahydro-1H-cyclopropa[3,4]cyclopenta[1,2-c]pyrazol-1-yl}ethan-1-one], in that order: 8.96 and 7.16.
